Source: the supplement of paper PMC10883282
± gives the standard deviation of the averaged measurements.

How the values were obtained:
Assay in all cases: relative viability vs DMSO control (72 h) (fraction); higher = more viable cells
G401 = tested on: G401
How it was run: (§1)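 ATPLite readings, expressed as percent growth and averaged over up to triplicate wells, provided relative viability. Before reading, sarcoma cell lines seeded in 384-well plates to reach 80–90% confluence received 2.5 µl of serially diluted compound after 24 h, from source plates of 10 mM to 0.0002 mM. Plates were held 72 h at 37 °C, 5% CO2, with 0.1% DMSO as vehicle and a 5 µM positive control. The data were rescaled to 1 for full and 0 for none.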

HT1080 = tested on: HT1080
How it was run: as §1

KHOS-NP = tested on: KHOS-NP
How it was run: as §1

MES-SA = tested on: MES-SA
How it was run: as §1

RD-ES = tested on: RD-ES
How it was run: as §1

RD = tested on: RD
How it was run: as §1

SK-ES-1 = tested on: SK-ES-1
How it was run: as §1

SK-LMS-1 = tested on: SK-LMS-1
How it was run: as §1

SW1353 = tested on: SW1353
How it was run: as §1

SW684 = tested on: SW684
How it was run: as §1

SW872 = tested on: SW872
How it was run: as §1

VA-ES-BJ = tested on: VA-ES-BJ
How it was run: as §1

CS(=O)(=O)CCNCc1ccc(-c2ccc3ncnc(Nc4ccc(OCc5cccc(F)c5)c(Cl)c4)c3c2)o1 [Lapatinib]
Conditions	relative viability
G401, 0.00017 µM	1.01 ± 0.029
G401, 0.00051 µM	1.01 ± 0.012
G401, 0.00152 µM	1.01 ± 0.012
G401, 0.00457 µM	1.01 ± 0.027
G401, 0.01372 µM	1.02 ± 0.035
G401, 0.04115 µM	1.04 ± 0.014
G401, 0.1235 µM	1.01 ± 0.015
G401, 0.3704 µM	0.966 ± 0.049
G401, 1.111 µM	1.02 ± 0.018
G401, 3.333 µM	1.01 ± 0.042
G401, 10 µM	0.789 ± 0.089
HT1080, 0.00017 µM	1.04 ± 0.053
HT1080, 0.00051 µM	1.035 ± 0.006
HT1080, 0.00152 µM	1.04 ± 0.036
HT1080, 0.00457 µM	1.05 ± 0.056
HT1080, 0.01372 µM	1.07 ± 0.018
HT1080, 0.04115 µM	1.04 ± 0.047
HT1080, 0.1235 µM	1.04 ± 0.03
HT1080, 0.3704 µM	1.059 ± 0.007
HT1080, 1.111 µM	1.1 ± 0.068
HT1080, 3.333 µM	1.09 ± 0.029
HT1080, 10 µM	0.674 ± 0.072
KHOS-NP, 0.00017 µM	1.059 ± 0.0036
KHOS-NP, 0.00051 µM	1.055 ± 0.0051
KHOS-NP, 0.00152 µM	1.05 ± 0.011
KHOS-NP, 0.00457 µM	1.07 ± 0.037
KHOS-NP, 0.01372 µM	1.055 ± 0.0085
KHOS-NP, 0.04115 µM	1.053 ± 0.01
KHOS-NP, 0.1235 µM	1.06 ± 0.032
KHOS-NP, 0.3704 µM	1.1 ± 0.033
KHOS-NP, 1.111 µM	1.07 ± 0.012
KHOS-NP, 3.333 µM	1.02 ± 0.035
KHOS-NP, 10 µM	0.93 ± 0.018
MES-SA, 0.00017 µM	0.933 ± 0.023
MES-SA, 0.00051 µM	0.918 ± 0.043
MES-SA, 0.00152 µM	0.904 ± 0.039
MES-SA, 0.00457 µM	0.912 ± 0.034
MES-SA, 0.01372 µM	0.923 ± 0.011
MES-SA, 0.04115 µM	0.931 ± 0.021
MES-SA, 0.1235 µM	0.945 ± 0.039
MES-SA, 0.3704 µM	0.9335 ± 0.0061
MES-SA, 1.111 µM	0.915 ± 0.045
MES-SA, 3.333 µM	0.683 ± 0.023
MES-SA, 10 µM	0.0484 ± 0.039
RD, 0.00017 µM	1.09 ± 0.095
RD, 0.00051 µM	1.1 ± 0.069
RD, 0.00152 µM	1.09 ± 0.083
RD, 0.00457 µM	1.11 ± 0.062
RD, 0.01372 µM	1.08 ± 0.071
RD, 0.04115 µM	1.12 ± 0.053
RD, 0.1235 µM	1.09 ± 0.051
RD, 0.3704 µM	1.1 ± 0.038
RD, 1.111 µM	1.1 ± 0.041
RD, 3.333 µM	0.98 ± 0.05
RD, 10 µM	0.0224 ± 0.013
RD-ES, 0.00017 µM	0.951 ± 0.039
RD-ES, 0.00051 µM	0.948 ± 0.039
RD-ES, 0.00152 µM	0.954 ± 0.048
RD-ES, 0.00457 µM	0.958 ± 0.051
RD-ES, 0.01372 µM	0.963 ± 0.018
RD-ES, 0.04115 µM	0.964 ± 0.064
RD-ES, 0.1235 µM	0.97 ± 0.044
RD-ES, 0.3704 µM	0.977 ± 0.049
RD-ES, 1.111 µM	0.951 ± 0.034
RD-ES, 3.333 µM	0.931 ± 0.018
RD-ES, 10 µM	0.909 ± 0.08
SK-ES-1, 0.00017 µM	1.05 ± 0.056
SK-ES-1, 0.00051 µM	1.04 ± 0.042
SK-ES-1, 0.00152 µM	1.02 ± 0.063
SK-ES-1, 0.00457 µM	0.98 ± 0.042
SK-ES-1, 0.01372 µM	1.06 ± 0.077
SK-ES-1, 0.04115 µM	0.985 ± 0.05
SK-ES-1, 0.1235 µM	1.02 ± 0.053
SK-ES-1, 0.3704 µM	1.02 ± 0.067
SK-ES-1, 1.111 µM	0.983 ± 0.041
SK-ES-1, 3.333 µM	0.772 ± 0.048
SK-ES-1, 10 µM	0.0529 ± 0.035
SK-LMS-1, 0.00017 µM	1.1 ± 0.065
SK-LMS-1, 0.00051 µM	1.09 ± 0.019
SK-LMS-1, 0.00152 µM	1.08 ± 0.032
SK-LMS-1, 0.00457 µM	1.13 ± 0.045
SK-LMS-1, 0.01372 µM	1.17 ± 0.066
SK-LMS-1, 0.04115 µM	1.15 ± 0.026
SK-LMS-1, 0.1235 µM	1.07 ± 0.042
SK-LMS-1, 0.3704 µM	1.1 ± 0.064
SK-LMS-1, 1.111 µM	1.11 ± 0.038
SK-LMS-1, 3.333 µM	0.824 ± 0.046
SK-LMS-1, 10 µM	0.361 ± 0.03
SW684, 0.00017 µM	1.15 ± 0.026
SW684, 0.00051 µM	1.13 ± 0.062
SW684, 0.00152 µM	1.14 ± 0.032
SW684, 0.00457 µM	1.13 ± 0.024
SW684, 0.01372 µM	1.13 ± 0.042
SW684, 0.04115 µM	1.17 ± 0.029
SW684, 0.1235 µM	1.15 ± 0.065
SW684, 0.3704 µM	1.14 ± 0.05
SW684, 1.111 µM	1.19 ± 0.054
SW684, 3.333 µM	1.15 ± 0.046
SW684, 10 µM	0.707 ± 0.096
SW872, 0.00017 µM	1.03 ± 0.018
SW872, 0.00051 µM	1.03 ± 0.058
SW872, 0.00152 µM	1.03 ± 0.045
SW872, 0.00457 µM	1.02 ± 0.018
SW872, 0.01372 µM	1.01 ± 0.055
SW872, 0.04115 µM	1.05 ± 0.026
SW872, 0.1235 µM	1.05 ± 0.05
SW872, 0.3704 µM	1.05 ± 0.076
SW872, 1.111 µM	1.04 ± 0.084
SW872, 3.333 µM	0.895 ± 0.02
SW872, 10 µM	0.0477 ± 0.057
SW1353, 0.00017 µM	0.964 ± 0.021
SW1353, 0.00051 µM	0.962 ± 0.041
SW1353, 0.00152 µM	0.948 ± 0.039
SW1353, 0.00457 µM	0.954 ± 0.035
SW1353, 0.01372 µM	0.932 ± 0.046
SW1353, 0.04115 µM	0.905 ± 0.037
SW1353, 0.1235 µM	0.906 ± 0.04
SW1353, 0.3704 µM	0.85 ± 0.022
SW1353, 1.111 µM	0.863 ± 0.024
SW1353, 3.333 µM	0.847 ± 0.023
SW1353, 10 µM	0.807 ± 0.025
VA-ES-BJ, 0.00017 µM	1.019 ± 0.008
VA-ES-BJ, 0.00051 µM	1.01 ± 0.026
VA-ES-BJ, 0.00152 µM	1.02 ± 0.034
VA-ES-BJ, 0.00457 µM	1.03 ± 0.014
VA-ES-BJ, 0.01372 µM	1.01 ± 0.019
VA-ES-BJ, 0.04115 µM	0.992 ± 0.032
VA-ES-BJ, 0.1235 µM	0.993 ± 0.033
VA-ES-BJ, 0.3704 µM	0.979 ± 0.059
VA-ES-BJ, 1.111 µM	0.985 ± 0.049
VA-ES-BJ, 3.333 µM	0.927 ± 0.04
VA-ES-BJ, 10 µM	0.451 ± 0.025
